# According to patent US11197859B2 (AUTIFONY THERAPEUTICS LIMITED, priority 2010, dated 2021):
# Molecular target: T1, human Kv3.2 channels (hKv3.2) (Homo sapiens, UniProt Q96PR1)
# T1 construct: expressed in transfected cells
# T1 sequence (Q96PR1 1-638): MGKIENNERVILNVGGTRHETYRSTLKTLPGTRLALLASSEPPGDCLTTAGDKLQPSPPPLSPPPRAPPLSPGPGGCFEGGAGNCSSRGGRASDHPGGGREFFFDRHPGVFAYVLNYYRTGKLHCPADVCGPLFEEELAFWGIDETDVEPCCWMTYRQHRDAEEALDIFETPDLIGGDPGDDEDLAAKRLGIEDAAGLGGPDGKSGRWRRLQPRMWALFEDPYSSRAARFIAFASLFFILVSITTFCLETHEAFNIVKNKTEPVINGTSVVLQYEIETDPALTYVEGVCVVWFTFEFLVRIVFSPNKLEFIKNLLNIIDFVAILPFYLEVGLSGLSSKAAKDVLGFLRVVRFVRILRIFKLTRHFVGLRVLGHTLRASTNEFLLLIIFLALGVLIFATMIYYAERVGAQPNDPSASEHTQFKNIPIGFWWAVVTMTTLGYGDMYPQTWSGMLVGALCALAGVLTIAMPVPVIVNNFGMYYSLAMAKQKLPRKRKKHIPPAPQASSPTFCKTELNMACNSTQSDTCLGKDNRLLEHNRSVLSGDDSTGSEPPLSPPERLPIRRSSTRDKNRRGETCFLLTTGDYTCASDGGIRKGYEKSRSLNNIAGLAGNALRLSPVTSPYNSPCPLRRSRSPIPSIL
# Experiment: IonWorks Quattro electrophysiology, hKv3.2 currents, activation time constant (Tauact)
# Format: cell-based
# Settings: hKv3.2, -15 mV pulse; compound 6.25 μM (concentration giving ~0.3 nA current)
# Description: The ability of the compounds of the disclosure to modulate the voltage-gated potassium channel subtypes Kv3.2/3.1 may be determined using the following assay.
# To assess compound effects on human Kv3.2 channels (hKv3.2), a stable cell line expressing hKv3.2 was created by transfecting Chinese Hamster Ovary (CHO)-K1 cells with a pCIH5-hKv3.2 vector. Cells were cultured in DMEM/F12 medium supplemented by 10% Foetal Bovine Serum, 1× non-essential amino acids (Invitrogen) and 500 ug/ml of Hygromycin-B (Invitrogen). Cells were grown and maintained at 37° C. in a humidified environment containing 5% CO2 in air.
# The day of the experiment, cells were removed from the incubator and the culture medium removed. Cells were washed with 5 ml of Dulbecco's PBS (DPBS) calcium and magnesium free and detached by the addition of 3 ml Versene (Invitrogen, Italy) followed by a brief incubation at 37° C. for 5 minutes. The flask was tapped to dislodge cells and 10 ml of DPBS containing calcium and magnesium was added to prepare a cell suspension. The cell suspension was then placed into a 15 ml centrifuge tube and centrifuged for 2 min at 1200 rpm. After centrifugation, the supernatant was removed and the cell pellet re-suspended in 4 ml of DPBS containing calcium and magnesium using a 5 ml pipette to break up the pellet. Cell suspension volume was then corrected to give a cell concentration for the assay of approximately 3 million cells per ml.
# Experiments were conducted at room temperature using IonWorks Quattro™ planar array electrophysiology technology (Molecular Devices Corp.) with PatchPlate™ PPC. Stimulation protocols and data acquisition were carried out using a microcomputer (Dell Pentium 4). Planar electrode hole resistances(Rp) were determined by applying a 10 mV voltage step across each well. These measurements were performed before cell addition. […] Following this, amphotericin-B solution was added to the intracellular face of the electrode to achieve intracellular access. Cells were held at −70 mV. Leak subtraction was conducted in all experiments by applying 50 ms hyperpolarizing (10 mV) prepulses to evoke leak currents followed by a 20 ms period at the holding potential before test pulses. From the holding potential of −70 mV, a first test pulse to −15 mV was applied for 100 ms and following a further 100 ms at −70 mV, a second pulse to 40 mV was applied for 50 ms. Cells were then maintained for a further 100 ms at −100 mV and then a voltage ramp from −100 mV to 40 mV was applied over 200 ms. In all experiments, the test pulses protocol was performed in the absence (pre-read) and presence (post-read) of the test compound. Pre- and post-reads were separated by the compound addition followed by a 3 minute incubation.
# The intracellular solution contained the following (in mM): K-gluconate 100, KCl 54, MgCl2 3.2, HEPES 5, adjusted to pH 7.3 with KOH. Amphotericin-B solution was prepared as 50 mg/ml stock solution in DMSO and diluted to a final working concentration of 0.1 mg/ml in intracellular solution.
# The final assay dilution was 200 and the final compound concentrations were in the range 50 μM to 50 nM.
# The recordings were analysed and filtered using both seal resistance (>20 MΩ) and peak current amplitude (>500 pA at the voltage step of 40 mV) in the absence of compound to eliminate unsuitable cells from further analysis. Kv3 channel-mediated outward currents were measured determined from the mean amplitude of the current over the final 10 ms of the −15 mV voltage pulse minus the mean baseline current at −70 mV over a 10 ms period just prior to the −15 mV step. This Kv3 channel currents following addition of the test compound were then compared with the currents recorded prior to compound addition. […] The normalised data were analysed using ActivityBase or Excel software.
compound,measurement,value
"CC[C@H]1NC(=O)N(c2ccc(Oc3ccc(C)c(OC)c3)nc2)C1=O [RE1, (5R)-5-ethyl-3-(6-{[4-methyl-3-(methyloxy)phenyl]oxy}-3-pyridinyl)-2,4-imidazolidinedione]",Tauact mean,9.9 ms
